Entries after “also recorded” stand apart in the source; their conditions may differ. Read-outs that look alike come from different tables or passages of the source.

One may read the Ki as the equilibrium dissociation constant of an inhibitor or competing ligand from its target. As a reminder, the IC50 is the concentration needed to halve the response being measured.

Assay [1] has as its target T1, SphK2 (Homo sapiens (Human), UniProt Q9NRA0). The conditions noted are these: cited from earlier work.
Assay [2] has as its target T1, SphK2. In words: ADP-Glo kinase assay, SphK2. In kind it is biochemical. The conditions noted are these: for IC50: ADP-Glo assay, 50 μM ATP, recombinant human SphK2. From the text: The bioluminescence-based kinase assay such as ADP-Glo assay measures ADP formed from a kinase reaction with a luciferase. Upon the completion of a kinase reaction, the remaining ATP is depleted, the ADP produced in the kinase reaction is then converted to ATP and the detection is based on a sensitive and robust bioluminescence reaction. It has a broad linear range of ATP concentrations and high dynamic range. To determine the inhibition activity of the compounds, the ADP-Glo kinase assay was used which was able to detect down to 20% of 1 μM ATP to ADP conversion (FIG. 4A).
ADP-Glo (Promega, Madison, WI) kinase assay were used to evaluate the kinase activity of SphK. ATP to ADP standard curves were prepared in the kinase buffer to assess the linearity of the assay in order to calculate the amount of ADP produced in each tested conditions (FIG. 4A). SB10 (tenfold signal to background ra-tio) of SphK was also determined to evaluate the enzyme perfor-mance and to optimize the kinase reaction condition in this system. In brief, for SphK2, […], 100 μM of D-erythro-Sphingosine (Tocris Bioscience, Minneapolis, MN), and 2 ng of recombinant human SphK2 (R&D Systems, Minneapolis, MN) with desired concentration of each synthesized compound were used for SphK2 kinase reaction. For SphK1, exact same reaction condition was used except 0.5 ng of recombinant human SphK1 was used.
To evaluate the SphK selectivity of each compound, 125 μM of each compound in reaction buffer ([…] Tris, pH 8.0, […] MgCl2, and 0.1 mg/mL BSA) with 5% DMSO was incubated with either SphK1 or SphK2 in a 384-well solid white low volume microplate (Corning, Corning, NY), and the reaction was initiated by adding mixture of ATP and D-erythro-Sphingosine to a total volume of 5 μL, after 1 h incubation at room temperature with gentle shaking, the reaction was stopped by adding equal volume of ADP-Glo buffer and incubated for another hour to remove excess amount of ATP from the reaction. Afterwards, 10 μL of kinase detection reagent was added, mixed, and incubated for 30 min under dark. Luminescence output was recorded using a SpectraMax M5 Multi-Mode Microplate Readers (Molecular Devices, San Jose, CA), an integration time of 500 ms was used. All reactions were performed in triplicate. The enzyme activity of SphK in the presence of each compound was normalized to the no treatment control. […] The final data was calculated using Prism 7.0 (GraphPad Software, La Jolla, CA), IC50 was determined using Nonlinear regression (curve fit) four parameters dose-response calculations.
(ADP-Glo first removes unused ATP, then detects ADP through luciferase.)

Assay [3] relates to U-251 MG human glioblastoma cells. In words: U-251 MG cell viability, Hoechst 33258/propidium iodide imaging, 125 μM, 24 h. The class given is cell-based. The conditions noted are these: hydrochloride. Here is the method: Cells were seeded into a 96-well microplate (Corning, Corning, NY) at 3000 cells/well and incubated for approximately 16 h. […] Cells were imaged using MetaXpress High-Content Image Acquisition and Analysis Software 6.1 and ImageXpress Micro XLS Wide-field High-Content Analysis System (Molecular Devices, San Jose, CA). Images were taken with a Nikon 10 CFI Plan Fluor objective. For all samples, triplicated measurements were performed.

The test system of a further assay is U-251 MG cells. In words: CellTiter96 MTS cell viability dose response, U-251 MG. The conditions noted are these: Homo sapiens, read-out: IC50 (cell viability). The class given is cell-based, human. Here is the method:
The anti-tumor activity of these inhibitors was further examined at different doses.
(§1) Cell viability was determined using CellTiter96 MTS Assay and compared to DMSO treated control cells. IC50 values were calculated by non-linear regression analysis of the dose-response curve using GraphPad Prism version 8.00 for Windows (GraphPad Software).

The next assay has as its system MDA-MB-453 cells. In words: CellTiter96 MTS cell viability dose response, MDA-MB-453. The conditions noted are these: Homo sapiens, MD-MB-453 (MDA-MB-453) cells. The class given is cell-based. As for the experimental part:
(§2) The anti-tumor activity of these inhibitors was also examined in different cell types. U-251 MG cells, SiHa cells, BT20 cells, and MDA-MB-453 cells were treated with increasing dose (10^−10 M to 10^−4 M) of SphK2 inhibitor TZ72-53 (21b), and dose response curves were generated (FIG. 9). IC50 values of 21b in the four different cell lines were calculated by non-linear regression analysis of the dose-response curve and are shown in Table 5 below.
as §1

For another assay, the system named is BT20 cells. Briefly: CellTiter96 MTS cell viability dose response, BT20. The class given is cell-based. As to conditions: Homo sapiens, BT-20. Here is the method: as §2, §1
In the next assay the test system is SiHa cells. In words: CellTiter96 MTS cell viability dose response, SiHa. In kind it is cell-based. The conditions noted are these: Homo sapiens. Here is the method: as §2, §1
Another assay deals with SphK1 (Homo sapiens (Human), UniProt Q9NYA1). As to conditions: cited from earlier work.
Chain of SphK1 (Q9NYA1 whole entry): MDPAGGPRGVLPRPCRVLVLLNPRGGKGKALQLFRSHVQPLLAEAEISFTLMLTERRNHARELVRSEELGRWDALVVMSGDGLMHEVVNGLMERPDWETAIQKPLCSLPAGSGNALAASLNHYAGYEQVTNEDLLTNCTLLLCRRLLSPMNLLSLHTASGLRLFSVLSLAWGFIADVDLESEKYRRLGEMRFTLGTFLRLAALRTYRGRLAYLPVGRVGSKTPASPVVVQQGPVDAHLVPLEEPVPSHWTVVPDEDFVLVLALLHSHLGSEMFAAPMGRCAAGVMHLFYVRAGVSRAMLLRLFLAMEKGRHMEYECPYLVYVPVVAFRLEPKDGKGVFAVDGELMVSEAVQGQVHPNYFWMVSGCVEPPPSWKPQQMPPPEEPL

T1 sequence (Q9NRA0 whole entry): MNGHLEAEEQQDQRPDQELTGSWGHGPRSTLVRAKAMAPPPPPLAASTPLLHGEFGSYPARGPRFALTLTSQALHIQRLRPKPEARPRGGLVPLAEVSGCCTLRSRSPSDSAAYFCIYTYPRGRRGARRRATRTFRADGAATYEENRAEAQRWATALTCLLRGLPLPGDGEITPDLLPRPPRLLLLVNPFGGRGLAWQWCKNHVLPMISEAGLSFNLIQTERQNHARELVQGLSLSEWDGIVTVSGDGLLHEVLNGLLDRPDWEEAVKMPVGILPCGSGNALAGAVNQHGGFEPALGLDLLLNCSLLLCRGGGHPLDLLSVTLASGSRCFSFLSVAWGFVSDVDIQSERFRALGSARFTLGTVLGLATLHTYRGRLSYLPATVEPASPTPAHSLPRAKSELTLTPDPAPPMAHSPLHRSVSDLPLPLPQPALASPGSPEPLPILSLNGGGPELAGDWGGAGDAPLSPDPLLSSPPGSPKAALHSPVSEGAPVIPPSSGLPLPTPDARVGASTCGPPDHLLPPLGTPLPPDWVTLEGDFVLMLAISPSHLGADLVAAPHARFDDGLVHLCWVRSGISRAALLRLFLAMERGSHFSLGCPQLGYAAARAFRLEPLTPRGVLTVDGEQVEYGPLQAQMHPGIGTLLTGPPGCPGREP

Take `N=C(N)N1CCC[C@H]1Cc1nc(-c2ccc(Nc3nc(-c4cccc(C(F)(F)F)c4)cs3)cc2)no1` [Compound 13, reference compound]: the inhibition constant Ki at SphK2 [1] (SphK2-selective inhibitors) was 0.09 µM. For the same compound, the IC50 on SphK2 [2] is 0.28 µM.
For `Cl.N=C(N)N1CCC[C@H]1Cc1nc(-c2ccc(Cn3cc(-c4ccccc4)nn3)cc2)no1` [Compound 21a, (S)-2-((3-(4-((4-Phenyl-1H-1,2,3-triazol-1-yl)methyl)phenyl)-1,2,4-oxadiazol-5yl)methyl)pyrrolidine-1-carboximidamide hydrochloride], the “antitumor activity / reduction of U-251 MG cell viability (in words)” value in assay [3] is recorded as “high anti-tumor activity; also recorded: significant reduction”. The IC50 with U-251 MG cells (U-251, 72 h) came out at 17 µM; on SphK2 [2], 0.396 µM.
Turning to `Cl.N=C(N)N1CCC[C@H]1Cc1nc(-c2ccc(Cn3cc(-c4ccc(C(F)(F)F)cc4)nn3)cc2)no1` [Compound 21b, (S)-2-((3-(4-((4-(4-(Trifluoromethyl)phenyl)-1H-1,2,3-triazol-1-yl)methyl)phenyl)-1,2,4-oxadiazol-5-yl)methyl)-pyrrolidine-1-carboximidamide hydrochloride], the “antitumor activity / reduction of U-251 MG cell viability (in words)” value in assay [3] is “high anti-tumor activity; also recorded: significant reduction”. For the same compound, the IC50 with MDA-MB-453 cells amounted to 35.8 µM; in the assay on U-251 MG cells (U-251 MG cells, 72 h, MTS) it was 11 µM; in the assay with BT20 cells it was 21.3 µM; in the assay with SiHa cells, 13 µM. Further, the “SphK2 inhibitory activity (in words)” value at SphK2 [2] is on record as “no inhibitory activity”. Besides, the “selectivity/specificity for SphK2 over SphK1” value at SphK2 [2] (125 μM of each compound, SphK2 versus SphK1, FIG. 5, hydrochloride) was “lowest specificity; also recorded: no selectivity”.
As to `Cc1ccc(S(=O)(=O)Nc2ccccc2C=Nc2ccccc2NS(=O)(=O)c2ccc(C)cc2)cc1` [MP-A08], the Ki on SphK2 [1] (human SphK2) was 6.9 ± 0.8 µM; at SphK1, 27 ± 3 µM.

Values taken from patent US12037329B2, “SphK inhibitors and methods of making and using same” (Washington University, priority 2021, dated 2024).
